Laboratory results from patent publication US9714233B2, “Processes and intermediates for making a JAK inhibitor” (Incyte Corporation, priority 2013, dated 2017).

Molecular target: T1, human JAK1 (a.a. 837-1142) catalytic domain (Homo sapiens, UniProt P23458)
T1 construct: human JAK1 (a.a. 837-1142); His tag (N); made in house; host or cells: insect cells (baculovirus)
Assay: In vitro JAK kinase assay (HTRF, phosphorylation of biotinylated peptide), JAK1
Assay type: biochemical
Conditions: measured at 1 mM ATP
Experimental: The compound of Formula I was tested for inhibitory activity of JAK targets according to the following in vitro assay described in Park et al., Analytical Biochemistry 1999, 269, 94-104. The catalytic domains of human JAK1 (a.a. 837-1142) and JAK2 (a.a. 828-1132) with an N-terminal His tag were expressed using baculovirus in insect cells and purified. The catalytic activity of JAK1 and JAK2 was assayed by measuring the phosphorylation of a biotinylated peptide. The phosphorylated peptide was detected by homogenous time resolved fluorescence (HTRF). IC50s of compounds were measured for each kinase in the 40 microL reactions that contain the enzyme, ATP and 500 nM peptide in 50 mM Tris (pH 7.8) buffer with 100 mM NaCl, 5 mM DTT, and 0.1 mg/mL (0.01%) BSA. For the 1 mM IC50 measurements, ATP concentration in the reactions was 1 mM. Reactions were carried out at room temperature for 1 hr and then stopped with 20 μL 45 mM EDTA, 300 nM SA-APC, 6 nM Eu-Py20 in assay buffer (Perkin Elmer, Boston, Mass.). Binding to the Europium labeled antibody took place for 40 minutes and HTRF signal was measured on a Fusion plate reader (Perkin Elmer, Boston, Mass.).

T1 sequence (P23458 849-1154 limits assumed): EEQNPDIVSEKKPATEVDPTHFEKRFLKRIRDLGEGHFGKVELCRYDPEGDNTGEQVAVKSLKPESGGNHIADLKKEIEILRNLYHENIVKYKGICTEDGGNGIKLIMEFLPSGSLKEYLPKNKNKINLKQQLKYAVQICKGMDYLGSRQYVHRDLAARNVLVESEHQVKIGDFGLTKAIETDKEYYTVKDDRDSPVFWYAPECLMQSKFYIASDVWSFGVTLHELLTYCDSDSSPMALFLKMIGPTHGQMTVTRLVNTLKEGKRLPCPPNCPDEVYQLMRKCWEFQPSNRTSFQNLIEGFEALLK

IC50: ≤ 5 nM
SMILES: N#CCC1(n2cc(-c3ncnc4[nH]ccc34)cn2)CN(C2CCN(C(=O)c3ccnc(C(F)(F)F)c3F)CC2)C1 [Formula I, {1-{1-[3-fluoro-2-(trifluoromethyl)isonicotinoyl]piperidin-4-yl}-3-[4-(7H-pyrrolo[2,3-d]pyrimidin-4-yl)-1H-pyrazol-1-yl]azetidin-3-yl}acetonitrile]
